Source: DBAASP
In brackets after ≈: the same amount, converted by molar mass.

Key:
Test in all cases: ≥ marks a high value that may be exact or a test limit, other limits are often not marked, values filed in µg/mL are converted to µM
[1] = system: Rhodococcus rhodochrous X15
[2] = system: Enterococcus faecalis 981
[3] = system: Staphylococcus carnosus KHS
[4] = system: Staphylococcus aureus ATCC 25923
[5] = system: Bacillus licheniformis X39
[6] = system: Pseudomonas aeruginosa Ps4
[7] = system: Escherichia coli DH5alpha
[8] = system: Salmonella enterica subsp. enterica serovar Typhimurium ATCC 14028
[9] = system: Klebsiella pneumoniae ATCC 10031
[10] = system: Psychrobacter faecalis X29

CC[C@H](C)[C@H](NC(=O)[C@@H]1CCCN1C(=O)[C@H](CC(C)C)NC(=O)[C@@H](N)Cc1ccccc1)C(=O)N[C@H](C(=O)NCC(=O)N[C@@H](CCCCN)C(=O)N[C@@H](CC(C)C)C(=O)N[C@@H](CC(C)C)C(=O)N[C@@H](CO)C(=O)NCC(=O)N[C@@H](CC(C)C)C(=O)N[C@@H](Cc1ccccc1)C(N)=O)C(C)C [FLPIVGKLLSGLF]
MIC [1]: 9 µM (≈ 12.6 µg/mL) | MIC [2]: ≥ 37.5 µM | MIC [3]: 19 µM (≈ 26.7 µg/mL) | MIC [4]: 150 µM (≈ 210 µg/mL) | MIC [5]: 19 µM (≈ 26.7 µg/mL)

CC[C@H](C)[C@H](NC(=O)[C@@H]1CCCN1C(=O)[C@H](Cc1ccccc1)NC(=O)[C@@H](N)Cc1ccccc1)C(=O)N[C@H](C(=O)NCC(=O)N[C@@H](CCCCN)C(=O)N[C@@H](CC(C)C)C(=O)N[C@@H](CC(C)C)C(=O)N[C@@H](CO)C(=O)NCC(=O)N[C@@H](CC(C)C)C(=O)N[C@@H](Cc1ccccc1)C(N)=O)C(C)C [FFPIVGKLLSGLF]
MIC [1]: 4.5 µM (≈ 6.47 µg/mL) | MIC [2]: ≥ 75 µM | MIC [3]: 19 µM (≈ 27.3 µg/mL) | MIC [4]: 150 µM (≈ 216 µg/mL) | MIC [5]: 19 µM (≈ 27.3 µg/mL)

CC[C@H](C)[C@H](NC(=O)[C@H](CCCN=C(N)N)NC(=O)[C@@H](NC(=O)[C@H](CC(N)=O)NC(=O)[C@H](CCCN=C(N)N)NC(=O)[C@H](CCC(N)=O)NC(=O)[C@H](Cc1c[nH]c2ccccc12)NC(=O)[C@@H](N)CC(C)C)[C@@H](C)CC)C(=O)N[C@@H](CCCN=C(N)N)C(=O)N[C@@H](CCCN=C(N)N)C(N)=O [LWQRNIRIRR]
MIC [6]: ≥ 177 µM

CC[C@H](C)[C@H](NC(=O)[C@H](CC(N)=O)NC(=O)[C@H](CCCN=C(N)N)NC(=O)[C@H](CCC(N)=O)NC(=O)[C@H](Cc1c[nH]c2ccccc12)NC(=O)[C@@H](N)CS)C(=O)N[C@@H](CCCN=C(N)N)C(=O)N[C@@H](CCCCN)C(=O)N[C@@H](CS)C(=O)N[C@@H](CCCN=C(N)N)C(N)=O [CWQRNIRKCR]
MIC [6]: ≥ 183 µM

CC(C)C[C@H](NC(=O)[C@H](CCCCN)NC(=O)[C@H](CCCCN)NC(=O)[C@H](CC(C)C)NC(=O)[C@H](CC(C)C)NC(=O)[C@H](CCCCN)NC(=O)[C@H](CC(C)C)NC(=O)[C@@H](N)Cc1ccccc1)C(=O)N[C@@H](C)C(=O)N[C@@H](C)C(=O)N[C@@H](CCCCN)C(=O)N[C@@H](CC(C)C)C(=O)N[C@@H](Cc1ccccc1)C(=O)O [FLKLLKKLAAKLF]
MIC [7]: 4.08 µM (≈ 6.25 µg/mL) | MIC [8]: 16.3 µM (≈ 25 µg/mL) | MIC [9]: 16.3 µM (≈ 25 µg/mL)

CC[C@H](C)[C@@H]1NC(=O)[C@H](CCCCN)NC(=O)[C@@H](NC(=O)[C@H](CCCCN)NC(=O)[C@H](C)NC(=O)[C@H](CCCCN)NC(=O)[C@H](CC(=O)O)NC(=O)[C@H](CCSC)NC(=O)[C@H](CC(C)C)NC(=O)[C@@H](NC(=O)CNC(=O)[C@H](C)NC(=O)[C@H](CC(C)C)NC(=O)[C@H](CC(N)=O)NC(=O)[C@@H](NC(=O)[C@@H](NC(=O)[C@@H](NC(=O)[C@H](CC(N)=O)NC(=O)[C@H](CCSC)NC(=O)[C@H](C)NC(=O)[C@@H](NC(=O)[C@H](CC(N)=O)NC(=O)[C@H](CC(C)C)NC(=O)[C@H](Cc2ccccc2)NC(=O)CN)[C@@H](C)O)[C@@H](C)O)C(C)C)[C@@H](C)O)[C@@H](C)O)CSSC[C@@H](C(=O)O)NC(=O)CNC(=O)[C@H](CCCN=C(N)N)NC1=O [GFLNTAMNTVTNLAGTLMDKAKCKIRGC]
MIC [10]: ≥ 400 µM

CC(C)[C@H](NC(=O)[C@H](CCCCN)NC(=O)[C@H](CCCN=C(N)N)NC(=O)[C@H](Cc1ccc(O)cc1)NC(=O)[C@H](CC(N)=O)NC(=O)[C@H](CCCN=C(N)N)NC(=O)[C@H](CCC(N)=O)NC(=O)[C@H](Cc1c[nH]c2ccccc12)NC(=O)[C@@H](N)Cc1ccccc1)C(=O)N[C@@H](CCCN=C(N)N)C(N)=O [FWQRNYRKVR]
MIC [6]: ≥ 172 µM
